Measurements published in PMC8147293, “Library of Selenocyanate and Diselenide Derivatives as In Vivo Antichagasic Compounds Targeting Trypanosoma cruzi Mitochondrion” (Pharmaceuticals, 2021).

What was measured:
[1] = test system: epimastigotes of T. cruzi Arequipa strain; assay: Screening against extracellular epimastigotes (resazurin); assay type: cell-based, Trypanosoma cruzi; conditions: Trypanosoma cruzi; Table S1; cultured epimastigote form of T. cruzi; read-out: Activity IC50
Method: Trypanocidal activity against epimastigotes of T. cruzi Arequipa strain (MHOM/Pe/2011/Arequipa, discrete typing unit V) was tested as previously described. In short, 5 × 10^5 epimastigotes·mL^−1 were treated by adding the tested compounds at a concentration range from 100 to 0.2 µM in 96-well microplates (200 µL·well^−1) for 48 h. Subsequently, resazurin sodium salt (Sigma-Aldrich) was added to be incubated for further 24 h. Finally, the absorbance was measured, and the trypanocidal activity was expressed as the IC50 (inhibitory concentration 50) using GraphPad Prism 6 software. Each compound concentration was tested in triplicate in three independent experiments.

Mammalian Vero cells = assay: Cytotoxicity test on Vero cells (resazurin); assay type: cell-based; conditions: Chlorocebus sabaeus; Table S1; cultured Vero cells; read-out: Toxicity IC50 Vero cell
Method: Mammalian Vero cells (EACC No. 84113001), cultured as previously reported, were used to determine the cytotoxicity of the tested compounds [56]. In short, 1.25 × 10^4 Vero cells·mL^−1 were treated by adding the compounds at a concentration range from 400 to 1 µM in 96-well microplates (200 µL·well^−1) at 37 °C for 48 h. Subsequently, resazurin sodium salt (Sigma-Aldrich) was added to be incubated for further 24 h. Finally, cell viability was determined following the same procedure as described to assess the trypanocidal activity in the epimastigotes. Each compound concentration was tested in triplicate in three independent experiments.

| Structure (SMILES) | IC50 [1] | IC50 (Mammalian Vero cells) |
| --- | --- | --- |
| O=S(=O)(Nc1ccc([Se][Se]c2ccc(NS(=O)(=O)c3ccccc3)cc2)cc1)c1ccccc1 [compound 41] | 6.8 ± 0.7 µM | 26.5 ± 1.4 µM |
| O=S(=O)(Nc1ccc([Se][Se]c2ccc(NS(=O)(=O)c3ccccc3Cl)cc2)cc1)c1ccccc1Cl [compound 35] | 28.4 ± 1.7 µM | 69 ± 5.3 µM |
| O=S(=O)(Nc1ccc([Se][Se]c2ccc(NS(=O)(=O)c3cccs3)cc2)cc1)c1cccs1 [compound 48] | 1.8 µM | 15.7 ± 1.1 µM |
| Cc1ccc(C[Se][Se]Cc2ccc(C)cc2)cc1 [compound 12] | 19.4 ± 1.5 µM | 4.9 ± 0.7 µM |
| O=[N+]([O-])c1ccc(C[Se][Se]Cc2ccc([N+](=O)[O-])cc2)cc1 [compound 6] | 13.6 ± 0.7 µM | 28.2 ± 1.1 µM |
| O=S(=O)(Nc1ccc([Se][Se]c2ccc(NS(=O)(=O)c3ccc(F)cc3)cc2)cc1)c1ccc(F)cc1 [compound 36] | 11.1 ± 0.8 µM | 70.8 ± 4.8 µM |
| O=S(=O)(Nc1ccc([Se][Se]c2ccc(NS(=O)(=O)c3cccc4cccnc34)cc2)cc1)c1cccc2cccnc12 [compound 45] | 1.7 ± 0.3 µM | 14.3 ± 1.1 µM |
| Brc1ccc(C[Se][Se]Cc2ccc(Br)cc2)cc1 [compound 2] | 39.3 ± 4.1 µM | 30.7 ± 2.1 µM |
| N#C[Se]Cc1ccc([N+](=O)[O-])cc1 [compound 5] | 21.8 ± 2.2 µM | 28.6 ± 2.4 µM |
| COc1ccc(S(=O)(=O)Nc2ccc([Se][Se]c3ccc(NS(=O)(=O)c4ccc(OC)cc4)cc3)cc2)cc1 [compound 38] | 27.8 ± 1.6 µM | 40.3 ± 2.5 µM |
| N#C[Se]Cc1cccc2cccnc12 [compound 25] | 10.3 ± 0.8 µM | 12.6 ± 0.3 µM |
| Brc1cc2c(cc1C[Se][Se]Cc1cc3c(cc1Br)OCO3)OCO2 [compound 24] | 45.7 ± 2.6 µM | 61.8 ± 4.1 µM |
| N#C[Se]Cc1ccc(C#N)cc1 [compound 13] | 1.9 ± 0.7 µM | 12.8 ± 0.7 µM |
| O=S(=O)(Nc1ccc([Se][Se]c2ccc(NS(=O)(=O)c3ccc(C(F)(F)F)cc3)cc2)cc1)c1ccc(C(F)(F)F)cc1 [compound 42] | 5.9 ± 0.4 µM | 36 ± 2.3 µM |
| O=[N+]([O-])c1ccccc1C[Se][Se]Cc1ccccc1[N+](=O)[O-] [compound 16] | 18.4 ± 2.3 µM | 18.9 ± 2.4 µM |
| O=S(=O)(Nc1ccc([Se][Se]c2ccc(NS(=O)(=O)c3ccc4ccccc4c3)cc2)cc1)c1ccc2ccccc2c1 [compound 44] | 5.6 ± 1.1 µM | 30.8 ± 2.2 µM |
| N#C[Se]Cc1cc2c(cc1Br)OCO2 [compound 23] | 14.1 ± 0.9 µM | 38.9 ± 2.1 µM |
| N#C[Se]Cc1c2ccccc2cc2ccccc12 [compound 28] | 21.4 ± 0.9 µM | 169 ± 9.7 µM |
| N#C[Se]CC(=O)C12CC3CC(CC(C3)C1)C2 [compound 31] | 13.2 ± 0.8 µM | 85.5 ± 4.9 µM |
| CSc1ccc(C[Se]C#N)cc1 [compound 9] | 11.3 ± 0.7 µM | 67.3 ± 4.9 µM |
| N#Cc1cccc(C[Se][Se]Cc2cccc(C#N)c2)c1 [compound 22] | 39.7 ± 2.6 µM | 29.8 ± 3 µM |
| N#C[Se]Cc1ccc2ccccc2n1 [compound 27] | 99.5 ± 6.1 µM | 68.3 ± 6.7 µM |
| O=S(=O)(Nc1ccc([Se][Se]c2ccc(NS(=O)(=O)c3ccc(Br)cc3)cc2)cc1)c1ccc(Br)cc1 [compound 33] | 10.2 ± 0.8 µM | 49.7 ± 3.2 µM |
| N#C[Se]Cc1ccc(Br)cc1 [compound 1] | 39.1 ± 2.5 µM | 68.4 ± 3.7 µM |
| N#Cc1ccc(C[Se][Se]Cc2ccc(C#N)cc2)cc1 [compound 14] | 27.9 ± 2.9 µM | 8.9 ± 1.5 µM |
| N#Cc1ccc(S(=O)(=O)Nc2ccc([Se][Se]c3ccc(NS(=O)(=O)c4ccc(C#N)cc4)cc3)cc2)cc1 [compound 40] | 3.8 ± 0.1 µM | 16 ± 1.7 µM |
| N#C[Se]Cc1nc2ccccc2nc1C[Se]C#N [compound 29] | 32.1 ± 1.1 µM | 67.4 ± 3.5 µM |
| N#C[Se]Cc1ccccc1C#N [compound 19] | 29.1 ± 3 µM | 18.5 ± 0.7 µM |
| N#C[Se]Cc1ccccc1 [compound 3] |  | 53.3 ± 2.5 µM |
| c1cnc2c(C[Se][Se]Cc3cccc4cccnc34)cccc2c1 [compound 26] | 6.7 ± 0.4 µM | 19.6 ± 1 µM |
